Assay results reported in patent US20140000884A1, “PETROLEUM RECOVERY PROCESS AND SYSTEM” (Shell Oil Company, priority 2012, published 2014).

Experiment: Dynamic viscosity of crude/dimethyl sulfide blends (rheometer, closed cup)
Type: physicochemical
Description: The quality of dimethyl sulfide as an oil recovery agent based on the crude oil viscosity lowering properties of dimethyl sulfide was evaluated. Three crude oils having widely disparate viscosity characteristics—an African Waxy crude, a Middle Eastern asphaltic crude, and a Canadian asphaltic crude—were blended with dimethyl sulfide.
A control sample of each crude was prepared containing no dimethyl sulfide, and samples of each crude were prepared and blended with dimethyl sulfide to prepare crude samples containing increasing concentrations of dimethyl sulfide. Each sample of each of the crudes was heated to 60° C. to dissolve any waxes therein and to permit weighing of a homogeneous liquid, weighed, allowed to cool overnight, then blended with a selected quantity of dimethyl sulfide. The samples of the crude/dimethyl sulfide blend were then heated to 60° C. and mixed to ensure homogeneous blending of the dimethyl sulfide in the samples. Absolute (dynamic) viscosity measurements of each of the samples were taken using a rheometer and a closed cup sensor assembly. Viscosity measurements of each of the samples of the West African waxy crude and the Middle Eastern asphaltic crude were taken at 20° C., 40° C., 60° C., 80° C., and then again at 20° C. after cooling from 80° C., where the second measurement at 20° C. is taken to measure the viscosity without the presence of waxes since wax formation occurs slowly enough to permit viscosity measurement at 20° C. without the presence of wax. Viscosity measurements of each of the samples of the Canadian asphaltic crude were taken at 5° C., 10° C., 20° C., 40° C., 60° C., 80° C.

CSC [Dimethyl Sulfide, dimethyl sulfide]
Viscosity (DMS 1.43 wt. %, 20° C.): 212525 mPa s
Viscosity (DMS 1.43 wt. %, 40° C.): 14721 mPa s
Viscosity (DMS 1.43 wt. %, 60° C.): 2209 mPa s
Viscosity (DMS 1.43 wt. %, 80° C.): 538 mPa s
Viscosity (DMS 2.07 wt. %, 20° C.): 134880 mPa s
Viscosity (DMS 2.07 wt. %, 40° C.): 10523 mPa s
Viscosity (DMS 2.07 wt. %, 60° C.): 1747 mPa s
Viscosity (DMS 2.07 wt. %, 80° C.): 427 mPa s
Viscosity (DMS 4.87 wt. %, 20° C.): 28720 mPa s
Viscosity (DMS 4.87 wt. %, 40° C.): 3235 mPa s
Viscosity (DMS 4.87 wt. %, 60° C.): 985 mPa s
Viscosity (DMS 4.87 wt. %, 80° C.): 328 mPa s
